We go through two molecules from article PMC8213057, “Targeting ALK2: An Open Science Approach to Developing Therapeutics for the Treatment of Diffuse Intrinsic Pontine Glioma” (Journal of Medicinal Chemistry, 2020).

One experiment addresses STK38L/NDR2 (Homo sapiens, UniProt Q9Y2H1). As to conditions: 1 μM; Run 1, Run 2.
For the next experiment, the target named is T1, DYRK2 (Homo sapiens, UniProt Q92630).
T1 sequence (Q92630 1-601): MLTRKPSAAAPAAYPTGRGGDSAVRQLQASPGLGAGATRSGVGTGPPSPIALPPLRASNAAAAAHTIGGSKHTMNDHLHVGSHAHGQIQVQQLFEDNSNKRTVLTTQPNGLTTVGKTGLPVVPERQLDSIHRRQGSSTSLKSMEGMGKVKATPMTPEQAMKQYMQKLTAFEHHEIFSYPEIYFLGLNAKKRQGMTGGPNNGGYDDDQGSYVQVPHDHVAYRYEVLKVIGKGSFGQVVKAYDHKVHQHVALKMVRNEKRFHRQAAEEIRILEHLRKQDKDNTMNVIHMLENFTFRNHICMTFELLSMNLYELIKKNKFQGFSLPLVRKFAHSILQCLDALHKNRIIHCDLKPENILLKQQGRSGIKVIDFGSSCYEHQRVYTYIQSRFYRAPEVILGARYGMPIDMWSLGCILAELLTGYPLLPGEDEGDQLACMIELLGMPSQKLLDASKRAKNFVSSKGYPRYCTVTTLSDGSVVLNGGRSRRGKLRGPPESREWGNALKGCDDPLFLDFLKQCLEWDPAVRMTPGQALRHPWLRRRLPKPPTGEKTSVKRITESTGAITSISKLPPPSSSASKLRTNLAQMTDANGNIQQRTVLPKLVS
Description: biochemical. The following applies: read-out: % enzyme activity, 1 μM; Run 1, Run 2.

The target of the next experiment is PLK1 (Homo sapiens, UniProt P53350). Description: biochemical. The following applies: read-out: % enzyme activity, 1 μM; Run 1, Run 2.
Chain of PLK1 (P53350 whole entry): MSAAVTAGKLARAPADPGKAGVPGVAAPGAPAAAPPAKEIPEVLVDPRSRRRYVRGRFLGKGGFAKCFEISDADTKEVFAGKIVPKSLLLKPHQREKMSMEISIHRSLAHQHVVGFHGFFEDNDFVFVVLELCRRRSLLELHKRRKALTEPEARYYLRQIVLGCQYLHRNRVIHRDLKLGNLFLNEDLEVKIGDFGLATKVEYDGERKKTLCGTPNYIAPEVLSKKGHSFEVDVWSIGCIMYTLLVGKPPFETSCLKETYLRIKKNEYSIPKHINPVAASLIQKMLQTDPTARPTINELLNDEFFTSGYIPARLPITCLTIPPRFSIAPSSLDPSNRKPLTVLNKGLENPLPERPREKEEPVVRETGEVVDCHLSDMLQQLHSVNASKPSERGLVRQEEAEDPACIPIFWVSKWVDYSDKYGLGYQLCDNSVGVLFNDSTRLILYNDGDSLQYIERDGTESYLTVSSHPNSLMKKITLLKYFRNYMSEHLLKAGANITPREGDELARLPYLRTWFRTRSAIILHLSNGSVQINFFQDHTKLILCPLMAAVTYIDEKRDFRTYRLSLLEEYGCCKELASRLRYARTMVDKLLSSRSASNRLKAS
The target of the next experiment is ACK1 (Homo sapiens, UniProt Q07912). Description: biochemical. As to conditions: read-out: % enzyme activity, 1 μM; Run 1, Run 2.
Chain of ACK1 (Q07912 whole entry): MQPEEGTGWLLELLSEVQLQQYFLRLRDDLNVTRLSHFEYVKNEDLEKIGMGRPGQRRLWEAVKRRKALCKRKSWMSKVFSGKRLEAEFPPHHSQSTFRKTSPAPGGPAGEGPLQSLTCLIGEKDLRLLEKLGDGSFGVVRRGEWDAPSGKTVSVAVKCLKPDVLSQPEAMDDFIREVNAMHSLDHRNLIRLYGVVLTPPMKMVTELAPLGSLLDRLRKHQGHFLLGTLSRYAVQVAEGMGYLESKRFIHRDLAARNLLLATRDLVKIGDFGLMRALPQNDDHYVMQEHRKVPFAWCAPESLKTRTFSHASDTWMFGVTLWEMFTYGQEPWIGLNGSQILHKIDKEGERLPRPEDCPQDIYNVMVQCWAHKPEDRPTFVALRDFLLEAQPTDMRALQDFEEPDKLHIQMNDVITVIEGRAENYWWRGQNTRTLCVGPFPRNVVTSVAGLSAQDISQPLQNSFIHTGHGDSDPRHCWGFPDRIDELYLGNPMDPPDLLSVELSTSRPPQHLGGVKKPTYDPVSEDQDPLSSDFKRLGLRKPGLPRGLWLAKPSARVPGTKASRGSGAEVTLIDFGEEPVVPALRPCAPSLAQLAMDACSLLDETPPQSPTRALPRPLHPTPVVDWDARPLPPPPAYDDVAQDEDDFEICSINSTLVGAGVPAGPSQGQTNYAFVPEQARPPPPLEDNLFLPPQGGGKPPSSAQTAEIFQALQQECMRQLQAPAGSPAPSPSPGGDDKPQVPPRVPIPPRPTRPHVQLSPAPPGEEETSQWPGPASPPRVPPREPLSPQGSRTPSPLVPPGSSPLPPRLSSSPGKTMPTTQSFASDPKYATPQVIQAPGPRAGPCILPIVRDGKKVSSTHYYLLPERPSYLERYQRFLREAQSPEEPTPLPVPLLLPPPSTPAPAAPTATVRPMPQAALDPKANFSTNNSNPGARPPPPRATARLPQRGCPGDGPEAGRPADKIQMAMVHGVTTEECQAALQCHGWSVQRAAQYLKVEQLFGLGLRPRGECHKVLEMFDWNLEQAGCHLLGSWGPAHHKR
The target of another experiment is T2, LKB1 (Homo sapiens, UniProt Q15831).
T2 sequence (Q15831 1-433): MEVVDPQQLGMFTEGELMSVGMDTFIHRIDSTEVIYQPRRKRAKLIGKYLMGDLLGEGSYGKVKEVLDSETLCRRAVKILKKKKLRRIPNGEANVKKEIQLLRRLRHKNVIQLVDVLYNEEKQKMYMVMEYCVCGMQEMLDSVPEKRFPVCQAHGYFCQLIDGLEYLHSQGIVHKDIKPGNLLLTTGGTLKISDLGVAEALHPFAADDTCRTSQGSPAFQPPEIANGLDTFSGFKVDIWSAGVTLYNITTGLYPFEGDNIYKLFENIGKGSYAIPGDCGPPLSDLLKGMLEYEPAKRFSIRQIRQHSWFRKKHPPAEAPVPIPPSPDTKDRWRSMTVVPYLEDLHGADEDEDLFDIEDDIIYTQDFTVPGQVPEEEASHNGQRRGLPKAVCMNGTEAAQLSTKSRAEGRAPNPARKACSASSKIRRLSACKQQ
T2 sequence (Q7RTN6 1-431 partner): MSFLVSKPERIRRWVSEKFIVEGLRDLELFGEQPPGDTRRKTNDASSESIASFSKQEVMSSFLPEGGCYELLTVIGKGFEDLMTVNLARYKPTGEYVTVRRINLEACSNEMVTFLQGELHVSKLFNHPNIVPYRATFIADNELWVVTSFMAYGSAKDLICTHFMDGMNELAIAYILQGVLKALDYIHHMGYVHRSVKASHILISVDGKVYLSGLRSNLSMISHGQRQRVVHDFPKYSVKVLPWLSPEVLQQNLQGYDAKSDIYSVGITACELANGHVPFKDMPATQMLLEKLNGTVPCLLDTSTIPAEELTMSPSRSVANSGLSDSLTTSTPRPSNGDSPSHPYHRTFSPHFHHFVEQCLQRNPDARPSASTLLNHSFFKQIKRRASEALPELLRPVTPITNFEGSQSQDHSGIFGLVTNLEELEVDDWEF
T2 sequence (Q9Y376 1-341 partner): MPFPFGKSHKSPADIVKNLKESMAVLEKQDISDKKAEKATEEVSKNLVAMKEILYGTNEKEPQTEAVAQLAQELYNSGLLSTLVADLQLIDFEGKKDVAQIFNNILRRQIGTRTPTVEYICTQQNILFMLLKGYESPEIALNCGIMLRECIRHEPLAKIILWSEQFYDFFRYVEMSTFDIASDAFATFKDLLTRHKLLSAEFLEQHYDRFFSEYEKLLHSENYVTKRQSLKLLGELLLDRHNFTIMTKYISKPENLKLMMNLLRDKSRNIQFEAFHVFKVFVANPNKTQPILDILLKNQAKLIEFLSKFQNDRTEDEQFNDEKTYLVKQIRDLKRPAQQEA
As to conditions: 1 μM; Run 1, Run 2.

The target of another experiment is T3, DRAK1/STK17A (Homo sapiens, UniProt Q9UEE5).
T3 sequence (Q9UEE5 1-414): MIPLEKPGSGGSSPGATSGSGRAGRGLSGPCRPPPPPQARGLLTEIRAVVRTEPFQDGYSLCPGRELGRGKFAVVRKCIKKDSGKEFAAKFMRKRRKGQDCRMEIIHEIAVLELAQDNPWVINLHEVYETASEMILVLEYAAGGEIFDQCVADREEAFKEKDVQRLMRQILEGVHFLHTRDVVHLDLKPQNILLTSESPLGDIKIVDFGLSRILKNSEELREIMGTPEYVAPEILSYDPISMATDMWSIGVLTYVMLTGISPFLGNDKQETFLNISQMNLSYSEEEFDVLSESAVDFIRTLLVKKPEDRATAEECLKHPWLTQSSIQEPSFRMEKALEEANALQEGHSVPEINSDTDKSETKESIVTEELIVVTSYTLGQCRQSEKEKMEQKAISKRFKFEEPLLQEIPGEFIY
Nature of the experiment: biochemical. The following applies: read-out: % enzyme activity, 1 μM; Run 1, Run 2.

The structures appear in SMILES notation.

Chain of STK38L/NDR2 (Q9Y2H1 whole entry): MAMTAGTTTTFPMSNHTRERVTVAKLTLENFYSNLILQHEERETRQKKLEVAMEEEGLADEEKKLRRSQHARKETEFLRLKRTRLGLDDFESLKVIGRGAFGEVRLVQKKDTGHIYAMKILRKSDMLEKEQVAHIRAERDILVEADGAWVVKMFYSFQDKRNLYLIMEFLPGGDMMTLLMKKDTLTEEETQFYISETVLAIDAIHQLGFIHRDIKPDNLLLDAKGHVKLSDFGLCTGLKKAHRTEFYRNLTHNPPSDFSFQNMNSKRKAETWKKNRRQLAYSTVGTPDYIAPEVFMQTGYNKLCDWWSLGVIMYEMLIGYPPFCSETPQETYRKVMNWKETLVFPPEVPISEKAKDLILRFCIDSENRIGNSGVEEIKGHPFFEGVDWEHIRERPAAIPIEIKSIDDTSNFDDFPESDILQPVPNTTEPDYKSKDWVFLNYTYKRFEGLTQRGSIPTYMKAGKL

On to `COc1cc(-c2cncc(-c3ccc(N4CCN(C)CC4)cc3)c2C)cc(F)c1C(N)=O` [Compound 26a, 2-Fluoro-6-methoxy-4-(4-methyl-5-(4-(4-methylpiperazin-1-yl)phenyl)pyridin-3-yl)benzamide], for which the “% enzyme activity” value is given as 98.69% on STK38L/NDR2 and 79.50% on LKB1. The remaining activity at 1 µM was found to be 96.3% on DYRK2, 92.4% at PLK1, 65.5% on ACK1 and 96.4% at DRAK1/STK17A.

Regarding `COc1cc(-c2cncc(-c3ccc(N4C[C@@H](C)N(C)[C@@H](C)C4)cc3)c2C)cc(F)c1C(N)=O` [Compound 26c, 2-Fluoro-6-methoxy-4-(4-methyl-5-(4-((3R,5S)-3,4,5-trimethylpiperazin-1-yl)phenyl)pyridin-3-yl)benzamide], the “% enzyme activity” value is reported as 102.97% at STK38L/NDR2 and 90.86% at LKB1. The remaining activity at 1 µM came out at 100% at DYRK2, 92.7% on PLK1, 79.5% at ACK1 and 96.6% at DRAK1/STK17A.
